Article PMC12785511, “Integrative Profiling for BBB Permeability Using Capillary Electrochromatography, Experimental Physicochemical Parameters, and Ensemble Machine Learning” (International Journal of Molecular Sciences, 2025)
Like-named read-outs stand apart in the source and are kept apart here.

Columns and labels:
[1] = physchem
Experimental: (§1) Using the Sirius T3 device, the physicochemical properties of the reference drugs were determined by automated potentiometric titrations. The compounds’ acidity was measured by determining their pKa parameters. […] The obtained psKa values were next extrapolated to the 0% content of methanol (pure ISA water) using the Yasuda–Shedlovsky extrapolation plots. The lipophilicity of the research compounds (log P parameters) was measured by the automated potentiometric method as well, based on the previously obtained compounds’ pKa values. The aqueous pH-metric titrations were carried out in the presence of n-octanol—an immiscible water partition solvent. […] The log P parameters were determined based on the differences between the apparent poKa and aqueous pKa values in three independent titrations conducted with diverse volume ratios of the aqueous and n-octanol phases. Log D7.4 values were calculated automatically by the Sirius T3 Refine software (version 2.0.0.0) based on the obtained log P and pKa values.

[2] = cited from earlier work
[3] = Sirius T3 automated potentiometric (pH-metric) titrations, pKa
Experimental: as §1

[4] = open-tubular capillary electrochromatography (CEC), permeability k′ parameter; type: in vitro ADME; settings: pH 7.4 HEPES buffer 40 mM, migration times in coated and uncoated capillary, mean ± SD of three independent experiments
Experimental: The separation HEPES buffer, POPC/PS liposomes (80:20 mol% ratio; large unilamellar vesicles type; LUV), and test samples were prepared according to the protocol described earlier [45]. […] To complete the coating procedure, the capillary was left to stand filled with the liposome solution for 15 min.
Since the reference drugs tested in this study are compounds ionized at pH 7.4, their migration times determined in the uncoated and coated capillary variants were used in the k′ permeability parameter calculations. At first, the experiments were conducted in the liposome-untreated capillary. Next, after coating the capillary with the inner liposomal layer, the migration times of analytes were evaluated once again in the coated one. […] The pH 7.4 HEPES buffer (40 mM) was used as the background electrolyte solution in all CEC experiments.
The CEC permeability k′ parameter was calculated for each reference drug based on its experimentally determined migration times in the uncoated and coated capillary variants using Equation (2) [56]:(2) k^′=tR(1/tEOF+ 1/tR^′− 1/tEOF^′)−1 where tR and tEOF are the migration times of the analyte and EOF marker in the coated capillary, respectively, and tR′ and tEOF′ are analogical migration times in the uncoated capillary.

[5] = physchem; remark: listed apart in the source
Experimental: as §1

Compound	logP [1]	logD ([1]; pH 7.4)	Log BB ([2]; experimental in vivo measurements from rats, data retrieved from literature)	pKa [3]	k′ ± SD (CEC) [4]	Log BB ([2]; rat, in vivo)	pKa [5]
O=C(O)CCCc1ccc(N(CCCl)CCCl)cc1 [chlorambucil]	3.71 ± 0.02	1.07	−1.70	4.72 ± 0.04	0.00397 ± 0.00087		
CNC(=O)Oc1ccc2c(c1)[C@]1(C)CCN(C)[C@@H]1N2C [physostigmine]					0.01268 ± 0.00087	0.08	8.24 ± 0.04
CCCN(CCC)CCc1cccc2c1CC(=O)N2 [ropinirole]					−0.01252 ± 0.00126		9.7 ± 0.05
